Read-outs that look alike come from different tables or passages of the source.

The target in experiment [1] is T1, cloned human H3 receptor, stably expressed in SK-N-MC cells (Homo sapiens, UniProt Q9Y5N1).
T1 construct: expressed in transfected cells
As to the kind of experiment: H3 receptor binding (N-[3H]-α-methylhistamine displacement). The settings on record: SK-N-MC membranes, 0.8 nM N-[3H]-α-methylhistamine.

For the next experiment, the target named is T2, Rat SERT (Rattus norvegicus, UniProt P31652).
T2 construct: A rat brain without cerebellum (Zivic Laboratories, Inc.—Pittsburgh, Pa.) was homogenized; tissue Zivic Laboratories, Inc; host or cells: rat brain without cerebellum, membranes
As to the kind of experiment: Rat brain SERT binding ([3H]-Citalopram displacement).

Experiment [2] deals with T3, human H3 receptor (SK-N-MC cells) (Homo sapiens, UniProt Q9Y5N1).
T3 construct: expressed in transfected cells; host or cells: SK-N-MC sublines with CRE-beta-galactosidase reporter
Description: Cyclic AMP accumulation (β-galactosidase reporter, Schild analysis vs histamine). Type of experiment: cell-based.
Description: The reporter gene (β-galactosidase) is under the control of multiple cyclic AMP responsive elements. In 96-well plates, histamine was added directly to the cell media followed 5 min later by an addition of forskolin (5 μM final concentration). When appropriate, antagonists were added 10 min prior to agonist addition. After a 6-h incubation at 37° C., the media was aspirated and the cells washed with 200 μL of phosphate-buffered saline followed by a second aspiration. Cells were lysed with 25 μL 0.1× assay buffer (10 mM Na-phosphate, pH 8, 0.2 mM MgSO4, 0.01 mM MnCl2) and incubated at rt for 10 min. Cells were then incubated for 10 min with 100 μL of 1× assay buffer containing 0.5% Triton and 40 mM β-mercaptoethanol. Color was developed using 25 μL of 1 mg/mL substrate solution (chlorophenolred β-D galactopyranoside; Roche Molecular Biochemicals, Indianapolis, Ind.).

Experiment [3] addresses T4, human SERT (HEK293 membranes) (Homo sapiens, UniProt P31645).
T4 construct: purchased Perkin-Elmer; host or cells: HEK293 membranes
Description: Human SERT binding (3H-citalopram displacement).
Description: Nonspecific binding was determined in the presence of 10 μM fluoxetine for the SERT. The membranes were washed and the radioactivity was counted as above.

[4] abbreviates: rat brain membranes, 0.6 nM [3H]-Citalopram, read-out: Rat SERT Ki.

T2 sequence (P31652 whole entry): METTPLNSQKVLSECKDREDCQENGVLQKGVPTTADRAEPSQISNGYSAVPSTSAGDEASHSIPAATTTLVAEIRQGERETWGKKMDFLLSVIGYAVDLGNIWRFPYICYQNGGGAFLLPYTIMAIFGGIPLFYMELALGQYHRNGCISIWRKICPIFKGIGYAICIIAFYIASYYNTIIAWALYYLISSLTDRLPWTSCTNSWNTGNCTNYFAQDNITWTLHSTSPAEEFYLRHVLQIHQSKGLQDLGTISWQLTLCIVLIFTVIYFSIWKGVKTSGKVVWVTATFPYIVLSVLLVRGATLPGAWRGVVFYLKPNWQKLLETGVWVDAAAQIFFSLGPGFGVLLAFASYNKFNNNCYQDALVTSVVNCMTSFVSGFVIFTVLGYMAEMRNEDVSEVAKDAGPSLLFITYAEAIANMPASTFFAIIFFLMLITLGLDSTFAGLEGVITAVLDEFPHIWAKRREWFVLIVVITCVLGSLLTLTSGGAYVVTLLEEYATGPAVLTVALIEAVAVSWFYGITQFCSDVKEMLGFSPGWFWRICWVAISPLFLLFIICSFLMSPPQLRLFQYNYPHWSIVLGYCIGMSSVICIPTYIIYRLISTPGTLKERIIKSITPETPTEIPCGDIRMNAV
T1 sequence (Q9Y5N1 whole entry): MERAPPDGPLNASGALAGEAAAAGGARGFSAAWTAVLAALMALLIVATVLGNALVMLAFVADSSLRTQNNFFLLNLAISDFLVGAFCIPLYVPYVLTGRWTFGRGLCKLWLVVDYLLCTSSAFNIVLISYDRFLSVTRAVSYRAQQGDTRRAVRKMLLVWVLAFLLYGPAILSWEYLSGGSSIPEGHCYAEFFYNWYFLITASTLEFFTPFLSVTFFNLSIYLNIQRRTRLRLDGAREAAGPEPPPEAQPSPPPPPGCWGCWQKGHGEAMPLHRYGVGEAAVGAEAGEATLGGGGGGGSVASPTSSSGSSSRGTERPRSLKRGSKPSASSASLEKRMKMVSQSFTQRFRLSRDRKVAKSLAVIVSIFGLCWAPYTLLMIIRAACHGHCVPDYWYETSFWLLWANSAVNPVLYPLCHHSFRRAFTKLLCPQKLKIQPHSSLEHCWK
T3 sequence (Q9Y5N1 whole entry): as above
T4 sequence (P31645 whole entry): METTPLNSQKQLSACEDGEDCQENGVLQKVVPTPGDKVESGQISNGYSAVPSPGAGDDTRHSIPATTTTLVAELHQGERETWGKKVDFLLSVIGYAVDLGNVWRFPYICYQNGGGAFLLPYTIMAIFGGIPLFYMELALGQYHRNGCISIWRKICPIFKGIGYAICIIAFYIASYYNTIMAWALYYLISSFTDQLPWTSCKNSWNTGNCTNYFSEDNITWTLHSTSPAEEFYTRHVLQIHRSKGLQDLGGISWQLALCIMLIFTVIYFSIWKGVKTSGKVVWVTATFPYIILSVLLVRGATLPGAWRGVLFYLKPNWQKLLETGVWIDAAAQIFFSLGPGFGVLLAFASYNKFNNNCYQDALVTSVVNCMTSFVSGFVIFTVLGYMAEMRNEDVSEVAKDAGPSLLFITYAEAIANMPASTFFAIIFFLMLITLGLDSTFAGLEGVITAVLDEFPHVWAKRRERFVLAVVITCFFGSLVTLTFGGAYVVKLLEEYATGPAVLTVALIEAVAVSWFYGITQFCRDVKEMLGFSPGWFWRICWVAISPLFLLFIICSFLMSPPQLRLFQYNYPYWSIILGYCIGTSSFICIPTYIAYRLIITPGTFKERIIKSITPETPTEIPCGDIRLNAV

For the compound `c1ccc([C@@H]2CN3CCC[C@H]3c3cc(OCCCN4CCCCC4)ccc32)cc1` (relative stereo) [Example 1B, Trans-6-Phenyl-9-(3-piperidin-1-yl-propoxy)-1,2,3,5,6,10b-hexahydro-pyrrolo[2,1a]isoquinoline], the figures for the Ki (in experiment [1]; on Rat SERT (setting [4])) were 0.2 nM and 138 nM, respectively. Moreover, the Kb in experiment [2] (read-out: H3 pA2 (converted)) is 0.251 nM.

In the case of `c1ccc([C@@H]2CN3CCC[C@H]3c3cccc(OCCCN4CCCCC4)c32)cc1` (relative stereo) [Example 1C, Trans-6-Phenyl-7-(3-piperidin-1-yl-propoxy)-1,2,3,5,6,10b-hexahydro-pyrrolo[2,1a]isoquinoline], the Ki (usually the dissociation constant of the complex between target and ligand, obtained from inhibition or displacement) was 68 nM in experiment [1] and 4000 nM at Rat SERT (setting [4]).

For `O=[N+]([O-])c1ccc([C@@H]2CN3CCC[C@H]3c3cc(OCCCN4CCCCC4)ccc32)cc1` (relative stereo) [Example 2B, Trans-6-(4-Nitro-phenyl)-9-(3-piperidin-1-yl-propoxy)-1,2,3,5,6,10b-hexahydro-pyrrolo[2,1-a]isoquinoline], the Ki stood at 31 nM in experiment [1] and 544 nM at Rat SERT (setting [4]). Further, the Kb in experiment [2] (read-out: H3 pA2 (converted)) is 1.58 nM.

Regarding `O=[N+]([O-])c1cccc([C@@H]2CN3CCC[C@H]3c3cccc(OCCCN4CCCCC4)c32)c1` (relative stereo) [Example 4D, Trans-6-(3-Nitro-phenyl)-7-(3-piperidin-1-yl-propoxy)-1,2,3,5,6,10b-hexahydro-pyrrolo[2,1-a]isoquinoline], the Ki in experiment [1] came out at 1 nM; at Rat SERT (setting [4]), 154 nM.

With `FC(F)(F)c1ccc([C@@H]2CN3CCC[C@H]3c3cc(OCCCN4CCCCC4)ccc32)cc1` (relative stereo) [Example 7A, Cis-9-(3-Piperidin-1-yl-propoxy)-6-(4-trifluoromethyl-phenyl)-1,2,3,5,6,10b-hexahydro-pyrrolo[2,1-a]isoquinoline], on Rat SERT (setting [4]), the Ki came to 27 nM.

`FC(F)(F)c1ccc([C@@H]2CN3CCC[C@@H]3c3cc(OCCCN4CCCCC4)ccc32)cc1` (relative stereo) [Example 7B, Trans-9-(3-Piperidin-1-yl-propoxy)-6-(4-trifluoromethyl-phenyl)-1,2,3,5,6,10b-hexahydro-pyrrolo[2,1-a]isoquinoline]: at Rat SERT (setting [4]), the Ki was found to be 25 nM.

On to `FC(F)(F)c1ccc([C@@H]2CN3CCC[C@H]3c3cccc(OCCCN4CCCCC4)c32)cc1` (relative stereo) [Example 7C], for which the inhibitory constant (Ki) in experiment [1] amounted to 31 nM; on Rat SERT (setting [4]), 630 nM.

`Oc1ccc([C@@H]2CN3CCC[C@H]3c3cccc(OCCCN4CCCCC4)c32)cc1` (relative stereo) [Example 9B]: the Ki in experiment [1] was 1000 nM; on Rat SERT (setting [4]), 6000 nM.

Turning to `COc1cccc([C@@H]2CN3CCC[C@H]3c3cc(OCCCN4CCCCC4)ccc32)c1` (relative stereo) [Example 10B, Trans-6-(3-Methoxy-phenyl)-9-(3-piperidin-1-yl-propoxy)-1,2,3,5,6,10b-hexahydro-pyrrolo[2,1-a]isoquinoline], the Ki in experiment [1] was determined as 2 nM; at Rat SERT (setting [4]), 37 nM. Also, the Kb in experiment [2] (read-out: H3 pA2 (converted)) was 0.251 nM.

Turning to `COc1cccc([C@@H]2CN3CCC[C@H]3c3cccc(OCCCN4CCCCC4)c32)c1` (relative stereo) [Example 10C, Trans-6-(3-Methoxy-phenyl)-7-(3-piperidin-1-yl-propoxy)-1,2,3,5,6,10b-hexahydro-pyrrolo[2,1-a]isoquinoline], the inhibition constant Ki in experiment [1] is 82 nM; on Rat SERT (setting [4]), 2000 nM.

In the case of `Clc1cccc([C@H]2CN3CCC[C@H]3c3cc(OCCCN4CCCCC4)ccc32)c1` (relative stereo) [Example 11B, Trans-6-(3-Chloro-phenyl)-9-(3-piperidin-1-yl-propoxy)-1,2,3,5,6,10b-hexahydro-pyrrolo[2,1-a]isoquinoline], the Ki in experiment [1] worked out at 1 nM; on Rat SERT (setting [4]) it was 91 nM. In experiment [2] (read-out: H3 pA2 (converted)), the Kb is 0.501 nM.

Turning to `Clc1cccc([C@@H]2CN3CCC[C@H]3c3cccc(OCCCN4CCCCC4)c32)c1` (relative stereo) [Example 11C], the Ki in experiment [1] was determined as 136 nM; on Rat SERT (setting [4]) it was 1000 nM.

For the compound `Oc1ccccc1[C@H]1CN2CCC[C@H]2c2cc(OCCCN3CCCCC3)ccc21` (relative stereo) [Example 16], the results for the Ki in experiment [1] and in experiment [3] were 4 nM and 112 nM, respectively. Also, the Kb in experiment [2] (read-out: H3 pA2 (converted)) was 1.26 nM.

For `COc1ccc([C@H]2CN3CCC[C@H]3c3cc(OCCCN4CCCCC4)ccc32)cc1OC` (relative stereo) [Example 18], the Ki in experiment [1] was determined as 0.9 nM; in experiment [3], 13 nM. The Kb in experiment [2] (read-out: H3 pA2 (converted)) was 0.501 nM.

Turning to `COc1ccc([C@H]2CN3CCC[C@H]3c3cc(OCCCN4CCCCC4)ccc32)c(OC)c1` (relative stereo) [Example 19], the Ki came to 1 nM in experiment [1] and 5 nM in experiment [3]. In addition, in experiment [2] (read-out: H3 pA2 (converted)), the Kb is 0.398 nM.

Take `COc1ccc(OC)c([C@H]2CN3CCC[C@H]3c3cc(OCCCN4CCCCC4)ccc32)c1` (relative stereo) [Example 20]: the Ki in experiment [1] was determined as 1 nM; in experiment [3] it was 43 nM. In experiment [2] (read-out: H3 pA2 (converted)), the Kb was 1 nM.

With `COc1cc(OC)cc([C@H]2CN3CCC[C@H]3c3cc(OCCCN4CCCCC4)ccc32)c1` (relative stereo) [Example 21], the Ki in experiment [1] is 1 nM; in experiment [3] it was 5 nM. Moreover, the Kb in experiment [2] (read-out: H3 pA2 (converted)) was 0.794 nM.

In the case of `COc1cc([C@H]2CN3CCC[C@H]3c3cc(OCCCN4CCCCC4)ccc32)cc(OC)c1OC` (relative stereo) [Example 22], the figures for the Ki in experiment [1] and in experiment [3] were 0.8 nM and 220 nM, respectively. The Kb in experiment [2] (read-out: H3 pA2 (converted)) is 0.631 nM.

In the case of `Ic1cccc([C@H]2CN3CCC[C@H]3c3cc(OCCCN4CCCCC4)ccc32)c1` (relative stereo) [Example 32], the Ki in experiment [1] was 1 nM; in experiment [3], 11 nM. In addition, in experiment [2] (read-out: H3 pA2 (converted)), the Kb is 0.316 nM.

On to `C[Si](C)(C)C#Cc1cccc([C@H]2CN3CCC[C@H]3c3cc(OCCCN4CCCCC4)ccc32)c1` (relative stereo) [Example 33], for which the values for the Ki (in experiment [1]; at Rat SERT) were 7 nM and 33 nM, respectively. Besides, the Kb in experiment [2] was 7.94 nM.

Regarding `C#Cc1cccc([C@H]2CN3CCC[C@H]3c3cc(OCCCN4CCCCC4)ccc32)c1` (relative stereo) [Example 34], the Ki in experiment [1] turned out to be 2 nM; in experiment [3], 3 nM. In addition, the Kb in experiment [2] (read-out: H3 pA2 (converted)) was 1 nM.

`Ic1ccc([C@@H]2CN3CCC[C@H]3c3cc(OCCCN4CCCCC4)ccc32)cc1` (relative stereo) [Example 35A, Cis-6-(4-Iodo-phenyl)-9-(3-piperidin-1-yl-propoxy)-1,2,3,5,6,10b-hexahydro-pyrrolo[2,1-a]isoquinoline]: the Ki was 4 nM in experiment [1] and 7 nM in experiment [3]. Also, the Kb in experiment [2] (read-out: H3 pA2 (converted)) is 3.98 nM.

As to `C#Cc1ccc([C@H]2CN3CCC[C@H]3c3cc(OCCCN4CCCCC4)ccc32)cc1` (relative stereo) [Example 37], the values for the Ki in experiment [1] and in experiment [3] were 4 nM and 0.8 nM, respectively. Moreover, the Kb in experiment [2] (read-out: H3 pA2 (converted)) is 1.58 nM.

On to `COc1ccc([C@@H]2CN3CCC[C@H]3c3cc(C#CCCN4CCCCC4)ccc32)cc1` (relative stereo) [Example 96A, Cis-6-(4-methoxy-phenyl)-9-(4-piperidin-1-yl-but-1-ynyl)-1,2,3,5,6,10b-hexahydro-pyrrolo[2,1-a]isoquinoline], for which the Ki was determined as 1 nM in experiment [1] and 9 nM in experiment [3]. In addition, the Kb in experiment [2] (read-out: H3 pA2 (converted)) was 6.31 nM.

With `CSc1ccc([C@@H]2CN3CCC[C@H]3c3ccc(C#CCCN4CCCCC4)cc32)cc1` (relative stereo) [Example 97A, Cis-6-(4-methylsulfanyl-phenyl)-8-(4-piperidin-1-yl-but-1-ynyl)-1,2,3,5,6,10b-hexahydro-pyrrolo[2,1-a]isoquinoline], the results for the Ki in experiment [1] and in experiment [3] were 3 nM and 2000 nM, respectively. For the same compound, the Kb in experiment [2] (read-out: H3 pA2 (converted)) is 1.58 nM.

Regarding `CSc1ccc([C@@H]2CN3CCC[C@H]3c3cc(C#CCCN4CCCCC4)ccc32)cc1` (relative stereo) [Example 98A, Cis-6-(4-methylsulfanyl-phenyl)-9-(4-piperidin-1-yl-but-1-ynyl)-1,2,3,5,6,10b-hexahydro-pyrrolo[2,1-a]isoquinoline], the Ki in experiment [1] was 4 nM; in experiment [3], 2 nM. For the same compound, in experiment [2] (read-out: H3 pA2 (converted)), the Kb is 10 nM.

Regarding `CSc1ccc(C2CN3CCCC3c3cccc(OCCCN4CCCCC4)c32)cc1` (stereo not shown) [Example 39C, 6-(4-Methylsulfanyl-phenyl)-7-(3-piperidin-1-yl-propoxy)-1,2,3,5,6,10b-hexahydro-pyrrolo[2,1-a]isoquinoline], the Ki in experiment [1] stood at 36 nM; at Rat SERT (setting [4]), 69 nM.

Take `CSc1ccc([C@@H]2CN3CCC[C@@H]3c3cc(OCCCN4CCOCC4)ccc32)cc1` [Example 89, (1R,6S)-6-(4-Methylsulfanyl-phenyl)-9-(3-morpholin-4-yl-propoxy)-1,2,3,5,6,10b-hexahydro-pyrrolo[2,1-a]isoquinoline]: the Ki in experiment [1] is 16 nM; at Rat SERT (setting [4]) it was 3 nM.

As to `CSc1ccc([C@H]2CN3CCC[C@H]3c3cc(OCCCN4CCOCC4)ccc32)cc1` [Example 90, (1S,6R)-6-(4-Methylsulfanyl-phenyl)-9-(3-morpholin-4-yl-propoxy)-1,2,3,5,6,10b-hexahydro-pyrrolo[2,1-a]isoquinoline], the Ki in experiment [1] was 10 nM; at Rat SERT (setting [4]) it was 24 nM.

As for `COc1ccc([C@H]2CN3CCC[C@H]3c3cc(OCCCN4CCOCC4)ccc32)cc1` [Example 91, (1S,6R)-6-(4-Methoxy-phenyl)-9-(3-morpholin-4-yl-propoxy)-1,2,3,5,6,10b-hexahydro-pyrrolo[2,1-a]isoquinoline], the Ki at Rat SERT (setting [4]) was found to be 60 nM. In experiment [2] (read-out: H3 pA2 (converted)), the Kb was 3.16 nM.

(Values after patent US8273762B2, “Hexahydro-pyrrolo-isoquinoline compounds” (Janssen Pharmaceutica NV, priority 2005, dated 2012).)
